From ChEMBL document CHEMBL1201862, “PubChem BioAssay data set” (2004) come the findings set out here.

Holding throughout (experiment): NCI anticancer screen, dose series, 48 h
For assay [1], the system named is 786-0.
Assay [2] deals with OVCAR-8.
The subject of assay [3] is TK-10.
In assay [4] the test system is Malme-3M.
Assay [5] relates to NCI-H522.
Assay [6] deals with SF-295.
Assay [7] concerns RPMI-8226.
Assay [8] relates to OVCAR-4.
Assay [9] has as its system NCI-H226.
For assay [10], the system named is NCI-H23.
Assay [11] deals with SR.
Assay [12] has as its system OVCAR-3.
The subject of assay [13] is MDA-N.
Assay [14] concerns SNB-75.
In assay [15] the test system is UO-31.
Assay [16] deals with LOX IMVI.
Assay [17] relates to MDA-MB-435.
In assay [18] the test system is Hs-578T.
Assay [19] relates to UACC-62.
Assay [20] has as its system HCC 2998.

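Five concentrations, 48 hours, 96-well plates. The concentration for 50% growth inhibition is given as GI50.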 The source made the active and inactive calls. No stated cut-off is given here; in the data, active = GI50 up to about 1.1 µM and inactive = higher. Starred links: 1 amine or outer side, 2 acyl side, 3 side chain; linkers in the order of their positions; H or OH if unused. Positions of bridges follow the written chain, without caps; N, C: chain ends. Non-standard residues stand in square brackets, D forms with d. Residues, ends and D or L forms follow the SMILES beside them. Chains are numbered I, II in the order given. Actinocin(9to1) = Cc1c2oc3c(C)ccc(C(=O)[*:1])c3nc-2c(C(=O)[*:2])c(N)c1=O; NMeV = CN[CH](C(=O)O)C(C)C; Sar = CNCC(=O)O

Take `Cn1c2ccc(C3=NCCN3)cc2c2cc(C3=NCCN3)ccc21`: the GI50 in assay [1] is 38.7 µM (inactive); in [2], 28.9 µM (inactive); in assay [3], 60.3 µM (inactive); in assay [4], 18.2 µM (inactive); in assay [5] it was 0.0775 µM (active); in [6] it was 42.8 µM (inactive). The GI50 in assay [7] was 24.6 µM (inactive); in assay [8] it was 13.6 µM (inactive); in assay [9], 30.1 µM (inactive); in assay [10], 4.16 µM (inactive); in [11], 18.2 µM (inactive); in [12], 42 µM (inactive). In addition, the GI50 is 53.1 µM (inactive) in [13]; 78.5 µM (inactive) in [14]; 56.1 µM (inactive) in [15]; 49.4 µM (inactive) in [16]; 61.8 µM (inactive) in assay [17]; 10.7 µM (inactive) in assay [18].

On to `CCOC(=O)/C=C/c1nc(C#N)c(N)o1`, for which the GI50 in [1], in assay [2], in [3], in assay [7], in assay [11] and in [13] was > 100 µM (inactive) in each case. Moreover, the GI50 is > 100 µM (inactive) in [14]; 53.6 µM (inactive) in assay [15]; > 100 µM (inactive) in [16]; > 100 µM (inactive) in assay [17]; > 100 µM (inactive) in assay [19]; > 100 µM (inactive) in assay [18].

With `COc1cc2c(cc1OC)C1C(O)C(OC)C(Br)C3(Br)CCN(C2)C13` (stereo not drawn), the GI50 in assay [1] was > 100 µM (inactive); in assay [2] it was 41.3 µM (inactive); in assay [3], > 100 µM (inactive); in [4], 42.6 µM (inactive); in [20], 70.3 µM (inactive); in assay [5] it was 50.8 µM (inactive). The GI50 in assay [6], in [7], in assay [8], in assay [9], in [10] and in assay [12] was > 100 µM (inactive) in each case. Further, the GI50 in assay [13] was > 100 µM (inactive); in assay [14], 78.9 µM (inactive); in assay [15], > 100 µM (inactive); in assay [17], > 100 µM (inactive); in assay [19], > 100 µM (inactive); in assay [18], > 100 µM (inactive).

For the compound `CC(=O)O[C@H]1CC[C@H]2[C@@H]3CCC4=C/C(=N/OCCN(C)C)CC[C@]4(C)[C@H]3CC[C@]12C`, the GI50 is 8.17 µM (inactive) in [1]; 13.4 µM (inactive) in [2]; 11.3 µM (inactive) in assay [3]; 13.3 µM (inactive) in assay [4]; 6.43 µM (inactive) in assay [20]; 6.87 µM (inactive) in assay [5]. In addition, the GI50 in assay [6] is 5.41 µM (inactive); in assay [7], 1.2 µM (inactive); in [8], 10.9 µM (inactive); in assay [9], 3.8 µM (inactive); in assay [10] it was 12.9 µM (inactive); in assay [12] it was 12.8 µM (inactive). In addition, the GI50 is 3.65 µM (inactive) in assay [13]; 6.68 µM (inactive) in assay [14]; 14.9 µM (inactive) in assay [15]; 3.16 µM (inactive) in assay [16]; 2.19 µM (inactive) in assay [17]; 10.7 µM (inactive) in assay [19]. Besides, the GI50 in [18] is 13.5 µM (inactive).

With `Cn1c(CO)ccc1-c1ccc(-c2ccc(CO)[se]2)[se]1`, the GI50 was 9.04 µM (inactive) in assay [1]; 6.89 µM (inactive) in assay [2]; 0.0376 µM (active) in assay [3]; 4.15 µM (inactive) in assay [4]; 0.705 µM (active) in assay [20]; 18.8 µM (inactive) in [5]. The GI50 in [6] is > 76.4 µM (inactive); in assay [7] it was 2.39 µM (inactive); in [8] it was 0.578 µM (active); in assay [9], 0.408 µM (active); in assay [10], 16.3 µM (inactive); in [11], 13.1 µM (inactive). For the same compound, the GI50 in assay [12] was 2.01 µM (inactive); in assay [14] it was > 100 µM (inactive); in [15] it was > 100 µM (inactive); in assay [16], 16.2 µM (inactive); in [17] it was 3.08 µM (inactive); in assay [19], 6.95 µM (inactive). Further, the GI50 in assay [18] was > 100 µM (inactive).

In the case of `CC(=O)c1ccc(NCN2C(=O)c3ccccc3C2=O)cc1`, the GI50 in assay [1] was > 100 µM (inactive); in assay [2], > 100 µM (inactive); in [3], > 100 µM (inactive); in assay [4], > 100 µM (inactive); in [20], > 100 µM (inactive); in assay [5], 97.5 µM (inactive). The GI50 in assay [6] is > 100 µM (inactive); in assay [7] it was 66.5 µM (inactive); in [8], > 100 µM (inactive); in assay [10] it was > 100 µM (inactive); in assay [12], > 100 µM (inactive); in [13] it was > 100 µM (inactive). Also, the GI50 in [14] was 30.5 µM (inactive); in assay [15], > 100 µM (inactive); in assay [16], > 100 µM (inactive); in assay [17] it was > 100 µM (inactive); in assay [19] it was > 100 µM (inactive); in [18], > 100 µM (inactive).

As to `CCCCC[C@H]1CCCCCCCCCC(=O)OC2C(O[C@@H]3OC(C)[C@H](OC(=O)[C@@H](C)CC)C(O[C@@H]4OC(C)[C@H](O)C(O)[C@@H]4O)[C@@H]3OC(=O)[C@H](C)CC)[C@H](OC3C(O)[C@@H](O)C(C)O[C@H]3O1)OC(CO)[C@H]2O` (stereo partly drawn), the GI50 in assay [1] was 17.4 µM (inactive); in [2], 19.3 µM (inactive); in [3], 20.1 µM (inactive); in [4], 15.3 µM (inactive); in [20], 17.2 µM (inactive); in [5] it was 17.7 µM (inactive). The GI50 in assay [6] is 18 µM (inactive); in assay [7], 16.8 µM (inactive); in assay [8], 19.2 µM (inactive); in assay [10] it was 17.9 µM (inactive); in assay [11] it was 16.7 µM (inactive); in [12] it was 17.9 µM (inactive). In addition, the GI50 in [13] was 17.4 µM (inactive); in assay [15], 16.1 µM (inactive); in assay [16] it was 17 µM (inactive); in assay [19], 16.9 µM (inactive); in [18] it was 16.4 µM (inactive).

Regarding `C=C[C@]1(C)CC(O)C2C(=C)C(=O)OC2[C@H]1C(=C)C=O` (stereo partly drawn), the GI50 in assay [1] was 1.91 µM (inactive); in [2] it was 2.16 µM (inactive); in [3], 3.94 µM (inactive); in assay [4], 1.86 µM (inactive); in assay [20], 14.1 µM (inactive); in assay [5], 0.966 µM (active). For the same compound, the GI50 in [6] is 10.6 µM (inactive); in [7], 0.859 µM (active); in assay [8], 7.93 µM (inactive); in [9], 6.59 µM (inactive); in assay [10] it was 2.68 µM (inactive); in assay [11], 1.91 µM (inactive). The GI50 in [12] is 2.67 µM (inactive); in assay [13] it was 3.92 µM (inactive); in assay [14], 18.6 µM (inactive); in assay [15], 6.37 µM (inactive); in [16] it was 1.01 µM (active); in assay [19] it was 1.79 µM (inactive). The GI50 in assay [18] was 14.4 µM (inactive).

For `Cc1c2oc3c(C)ccc(C(=O)NC4C(=O)NC(Cc5ccc(O)cc5)C(=O)N5CCCC5C(=O)N(C)CC(=O)N(C)C(C(C)C)C(=O)OC4C)c3nc-2c(C(=O)NC2C(=O)NC(Cc3ccc(O)cc3)C(=O)N3CCCC3C(=O)N(C)CC(=O)N(C)C(C(C)C)C(=O)OC2C)c(N)c1=O` (stereo not drawn) (I: TYP[Sar][NMeV] / II: TYP[Sar][NMeV]; ester I:1-I:C, II:1-II:C; linker I:N-II:N via Actinocin(9to1); configuration not given here), the GI50 in assay [1] is 0.368 µM (active); in [2] it was 0.8 µM (active); in [3] it was 13.7 µM (inactive); in assay [4] it was 0.392 µM (active); in assay [20] it was > 40.2 µM (inactive); in assay [5], 0.877 µM (active). Besides, the GI50 is 0.42 µM (active) in [6]; 0.282 µM (active) in assay [7]; 1.14 µM (inactive) in assay [8]; 0.957 µM (active) in assay [9]; 0.494 µM (active) in assay [10]; 1.63 µM (inactive) in assay [12]. In addition, the GI50 in [13] was 0.535 µM (active); in assay [14], 0.139 µM (active); in assay [15], 17.9 µM (inactive); in [16], 0.0859 µM (active); in [17], 1.93 µM (inactive); in [19], 1.14 µM (inactive). Besides, the GI50 in assay [18] was 16.6 µM (inactive).

As for `O=C1c2cccnc2-c2nccc3c2c1nc1ccccc13` [ASCIDIDEMIN], the GI50 in assay [1] is 0.752 µM (active); in assay [2], 0.0505 µM (active); in [3], 1.27 µM (inactive); in [4] it was 0.231 µM (active); in [5], 0.0975 µM (active); in assay [6], 0.0798 µM (active). Further, the GI50 in [7] is 0.264 µM (active); in [8], 1.03 µM (active); in assay [9], 0.21 µM (active); in assay [10] it was 0.172 µM (active); in assay [12], 0.0318 µM (active); in [13], 0.157 µM (active). For the same compound, the GI50 in [14] was 0.389 µM (active); in assay [15] it was 0.143 µM (active); in [16], 0.0512 µM (active); in assay [17], 0.19 µM (active); in [19] it was 0.224 µM (active); in assay [18], 0.637 µM (active).

Consider `Nc1ccccc1NC(=O)c1ccc(CNC(=O)OCc2cccnc2)cc1` [ENTINOSTAT], for which the GI50 in assay [1] is 3.35 µM (inactive); in assay [2], 0.993 µM (active); in [3] it was 0.92 µM (active); in assay [20], 1.41 µM (inactive); in assay [5], 0.908 µM (active); in assay [6], 2.02 µM (inactive). In addition, the GI50 in assay [7] is 0.158 µM (active); in assay [9], 0.501 µM (active); in assay [10], 1.38 µM (inactive); in assay [12], 1.51 µM (inactive); in assay [13], 0.778 µM (active); in assay [14], 4.89 µM (inactive). Also, the GI50 is 0.759 µM (active) in assay [15], 0.859 µM (active) in assay [16], 0.622 µM (active) in [19] and 3.31 µM (inactive) in assay [18].
